Test results: patent US20200108031A1, “Treating Tumors Using TTFields Combined with ABT-751” (Novocure GmbH, priority 2018, published 2020)

What was measured:
[1] = system: A172 cells; assay: Growth of A172 cells, TTFields alone and in combination with ABT-751; format: cell-based; conditions: ABT-751 1 μM, 8 hours, TTFields 200 kHz, 3.3 V/cm, 72 hours (continuous or 3×16 hours), FIG. 1
Method: (§1) For the first two bars, both without (−) and with (+) ABT-751, TTFields were not applied. For the next two bars, both without (−) and with (+) ABT-751, TTFields were applied for three 16 hour intervals, and each of those 16 hour intervals was followed by an 8 hour interval during which TTFields were not applied. For the next two bars, both without (−) and with (+) ABT-751, TTFields were applied continuously for 72 hours. […] Data are mean±SEM; n≥5; Statistical significance was determined by one-way ANOVA; Tukey-corrected for multiple comparisons; *p<0.05, **p<0.01, ***p<0.001, ****p<0.0001. In all the experiments described herein, TTFields (200 kHz; 3.3V/cm) were applied using an Inovitro™ system.

[2] = system: A172 cells; assay: Colony formation (clonogenic survival) of A172 cells, TTFields alone and in combination with ABT-751; format: cell-based; conditions: ABT-751 1 μM, 8 hours, TTFields 200 kHz, 3.3 V/cm, 72 hours (continuous or 3×16 hours), FIG. 2
Method: as §1

SMILES: COc1ccc(S(=O)(=O)Nc2cccnc2Nc2ccc(O)cc2)cc1 [ABT-751, N-[2-(4-hydroxyanilino)pyridin-3-yl]-4-methoxybenzenesulfonamide]
- synergy with TTFields on cell growth [1]: synergizes
- synergy with TTFields on colony formation [2]: synergizes
